Source: patent US20230272012A1, “PEPTIDES AND METHODS OF USE” (REALTA LIFE SCIENCES, INC., priority 2020, published 2023)
Bridge positions count the residues as written; N and C are the ends. Square brackets hold non-standard residues; d marks the D form. Ends that are not written are not given here. Peptide text beside a SMILES is read from it. R8 = C=CCCCCCC[C@@](C)(N)C(=O)O; S5 = C=CCCC[C@](C)(N)C(=O)O; Sar = CNCC(=O)O

Key:
complement activity = assay: Hemolytic assay of plasma after IV infusion into rats; format: in vivo, rat; details: IV in Wistar rats; early time points at the highest dose
Description: (§1) Male Wistar rats with indwelling jugular catheters were administered PA-0117, -0127, -0130, and -0133 with groups of three animals receiving 20, 200 and 400 mg/kg of the compound as a single, bolus, IV infusion. A control group of rats received an infusion of saline IV. At various time points after infusion (0.5, 2, 5, 20, 60, 120, 240, 480, 1440 minute) an aliquot of blood was drawn and plasma isolated and frozen at −70° C. pending analysis. Animals were sacrificed after the terminal blood draw and a gross necropsy performed.
(§2) PA-0117 could not be analyzed as no functional complement activity was obtained from the plasma samples. […] PA-0117 was analyzed in a C1q target acquisition assay (C1q binding assay) as described in Example 1 (FIG. 9). […] PA-0127 and -0130 levels were determined by coating the plate with the plasma samples and directly detecting the peptides by rabbit antibody raised against PA-0020 (peptide sequence […]; SEQ ID NO: 57) (FIGS. 10B and 11B). […] PA-0133 could not be detected by the available antibodies.

PD-1 = PD-1 (Homo sapiens, UniProt Q15116); assay: Peptide binding to immobilized PD-1, ELISA plate-based assay; details: increasing amounts of peptide
Chain of PD-1 (Q15116 25-288): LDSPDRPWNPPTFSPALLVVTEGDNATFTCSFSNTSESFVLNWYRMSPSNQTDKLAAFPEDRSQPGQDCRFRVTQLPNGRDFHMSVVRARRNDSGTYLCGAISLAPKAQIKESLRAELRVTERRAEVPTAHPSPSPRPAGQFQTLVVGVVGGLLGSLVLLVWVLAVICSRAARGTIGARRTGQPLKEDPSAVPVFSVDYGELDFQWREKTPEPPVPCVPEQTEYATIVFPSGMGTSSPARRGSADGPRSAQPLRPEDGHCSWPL
Description: (§3) RLS-0117 was allowed to bind to immobilized CTLA-4, PD-1, PD-L1 on the surface of the plate. Bound C1q served as a positive and control for peptide binding. Increasing amounts of peptides were added to the plates followed by a rabbit polyclonal antibody that recognizes the peptides and then a secondary anti-rabbit antibody conjugated with HRP. The plate was then developed by addition of TMB as the substrate for the colorimetric assay.
(§4) The inventors further evaluated if RLS-0117 could bind to the well characterized checkpoint inhibitor, cytotoxic T-lymphocyte associated protein 4 (CTLA-4 aka CD152). […] Therefore, the pharmaceutical inhibition of CTLA-4 or its ligand has been considered a promising strategy by many cancer researchers and is a therapeutic target in cancer immunotherapy. To ascertain the ability of RLS-0117 to bind CTLA-4, a binding assay was performed in which these proteins were coated on a microtiter plate followed by incubation with increasing amounts of either […]. Plates coated with PD-1, PD-L1 and C1q served as a positive control […].

CTLA-4 = biological target: T1, CTLA-4 (Homo sapiens, UniProt P16410); assay: Peptide binding to immobilized CTLA-4, ELISA plate-based assay; details: increasing amounts of peptide
T1 sequence (P16410 36-223): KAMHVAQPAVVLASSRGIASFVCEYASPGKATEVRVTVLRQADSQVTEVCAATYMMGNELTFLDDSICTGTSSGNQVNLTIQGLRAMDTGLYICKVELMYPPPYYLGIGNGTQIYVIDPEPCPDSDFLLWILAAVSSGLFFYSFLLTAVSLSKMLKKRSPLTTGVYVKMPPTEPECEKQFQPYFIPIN
Description: as §3, §4

[1] = format: in vivo, rat; details: IV in Wistar rats, 20, 200, 400 mg/kg; 0.5-1440 minute
Description: as §1, §2
PA-0117: The hemolysis assay results were not useable (few pre-bleeds had any activity, and only a few other random samples had any complement activity). The PK assay for PA-0117 was performed by sandwich ELISA (FIG. 9). PA-0127: The results of the hemolysis assay are discussed herein (see also FIG. 10A). […] PA-0130: The results of the hemolysis assay are discussed herein (see also FIG. 11A). […] PA-0133: The results of the hemolysis assay are discussed herein (FIG. 12).

PD-L1 = PD-L1 (Homo sapiens, UniProt Q9NZQ7); assay: Peptide binding to immobilized PD-L1, ELISA plate-based assay; details: increasing amounts of peptide
Chain of PD-L1 (Q9NZQ7 19-290): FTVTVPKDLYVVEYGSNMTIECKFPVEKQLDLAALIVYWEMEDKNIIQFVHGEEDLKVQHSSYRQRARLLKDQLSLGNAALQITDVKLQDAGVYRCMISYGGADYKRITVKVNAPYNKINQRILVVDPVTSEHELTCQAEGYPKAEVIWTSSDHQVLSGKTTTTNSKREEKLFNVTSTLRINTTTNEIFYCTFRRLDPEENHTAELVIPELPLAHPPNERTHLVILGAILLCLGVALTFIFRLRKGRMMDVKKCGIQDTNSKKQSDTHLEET
Description: as §3, §4

[2] = ABO incompatibility hemolytic assay of complement activity (CH50-type); format: cell-based, human; details: human; peptide 0.8 mg/ml (~0.5 mM); read-out: decrease of ABO hemolysis compared to PA-I8Sar
In short: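 Type AB human erythrocytes (5.0×10^7) incubated with 15% (final) type O human serum and 0.5 mM peptide in GVBS^++, 1 h at 37 °C. Hemolysis read as supernatant absorbance at 412 nm, expressed as percent of the serum-plus-RBC positive control; means of three independent experiments ±SEM.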

[3] = Total Antioxidant Capacity (TAC) assay; details: highest peptide concentration 1.5 mM
Description: As previously reported, the TAC (Total Antioxidant Capacity) Assay (Cell Biolabs, Inc, San Diego, Calif.) was used to measure the antioxidant capacity of the PIC1 variants based on the reduction of copper (II) to copper (I). The kit protocol was performed per the manufacturer's recommendations.
The antioxidant properties for the PIC1 variants were evaluated in a Total Antioxidant Capacity (TAC) assay, as previously reported. Total antioxidant activity over a range of peptide concentrations were determined for the stapled and the D-amino acid peptides based on the PA-I8Sar and PA-C9Sar backbones (FIG. 8A-8D), with the activity of the highest peptide concentration reported (1.5 mM) (FIGS. 4A and B, respectively). […] For the D-amino acid variants, there was variation in the amount of antioxidant activity with the peptides having similar, slightly lower and slightly higher levels of total antioxidant capacity. In contrast, stapled peptides (PA-0135 through -0140) as well as combination of stapled and D-amino acid peptides had reduced total antioxidant capacity (FIG. 4A).

In the case of “IALILEP(Sar)dCCQERRA (IALILEP[Sar][dC]CQERRA; cysteine pairing not given here) [RLS-0127*]”, the “inhibition of complement activity in the hemolytic assay of rat plasma” value (complement activity) is reported as “inhibit complement activation”.
For `CC[C@H](C)[C@H](N)C(=O)N[C@@H](C)C(=O)N[C@@H](CC(C)C)C(=O)N[C@H](C(=O)N[C@@H](CC(C)C)C(=O)N[C@@H](CCC(=O)O)C(=O)N1CCC[C@H]1C(=O)N(C)CC(=O)N[C@@H](CS)C(=O)N[C@@]1(C)CCCC=CCCC[C@@](C)(C(=O)N[C@@H](C)C(=O)O)NC(=O)[C@H](CCCNC(=N)N)NC(=O)[C@H](CCC(=O)O)NC(=O)[C@H](CCC(N)=O)NC1=O)[C@@H](C)CC` [PA-0117, IALILEP(Sar)CS5QERS5A] (H-IALILEP[Sar]C[S5]QER[S5]A-OH; staple 10-14), the “binding to PD-1” value (PD-1) was “dose-dependent binding”, the “binding to CTLA-4” value (CTLA-4) was “bound CTLA-4” and the “peptide level in plasma over time” value [1] was “detected at early time points at each dose and decreased over time”. For the same compound, the “binding to PD-L1” value (PD-L1) was “dose-dependent binding” and the decrease in ABO hemolysis compared to reference peptide at 1 h [2] was 25%.
For “IALILEP(Sar)CCQERA (IALILEP[Sar]CCQERA; cysteine pairing not given here) [RLS-0133*]”, the “inhibition of complement activity in the hemolytic assay of rat plasma” value (complement activity) was “inhibit complement activation”.
For `CC[C@H](C)[C@H](N)C(=O)N[C@]1(C)CCCCCCC=CCCC[C@@](C)(C(=O)N[C@@H](CS)C(=O)N[C@@H](CCC(N)=O)C(=O)N[C@@H](CCC(=O)O)C(=O)N[C@@H](CCCNC(=N)N)C(=O)N[C@@H](C)C(=O)N[C@@H](C)C(=O)O)NC(=O)CN(C)C(=O)[C@@H]2CCCN2C(=O)[C@H](CCC(=O)O)NC(=O)[C@H](CC(C)C)NC(=O)[C@H]([C@@H](C)CC)NC(=O)[C@H](CC(C)C)NC1=O` [PA-0115, IR8LILEP(Sar)S5CQERAA] (H-I[R8]LILEP[Sar][S5]CQERAA-OH; staple 2-9), the “total antioxidant capacity compared with PA-I8Sar” value [3] was “much less antioxidant activity”, the “total antioxidant capacity compared with PA-I8Sar” value ([3]; listed as PA-0015) was “reduction in total antioxidant capacity” and the decrease in ABO hemolysis compared to reference peptide at 1 h [2] was 30%.
